Results as given in article PMC6225339 (Journal of the American Chemical Society, 2018).
Where a name gives a salt, the structure may show the parent alone.

Experiments:
H9C2 cardiomyocytes [1] = type: cell-based, rat
H9C2 cardiomyocytes [2] = conditions: Dox only, 24 h, CCK-8

Structure (SMILES)	protection of H9C2 viability against Dox (control studies) (H9C2 cardiomyocytes [1])	concentration inducing cytotoxicity in H9C2 cardiomyocytes (H9C2 cardiomyocytes [2]) [nM]
N[C@@H](CS)C(=O)O [Cys, cysteine]	no protective effect	
COc1cccc2c1C(=O)c1c(O)c3c(c(O)c1C2=O)C[C@@](O)(C(=O)CO)C[C@@H]3O[C@H]1C[C@H](N)[C@H](O)[C@H](C)O1 [Dox, Doxorubicin hydrochloride]		≥ 2500
C1COCCN1.COc1ccc(P(=S)(S)N2CCOCC2)cc1 (stereo not drawn) [GYY4137]	no effect on viability	
